According to patent US20230348376A1 (TEIJIN PHARMA LIMITED, priority 2020, published 2023):

Key:
[1] = test system: rat oligodendrocyte progenitor cells; experiment: Promotive activity of rat oligodendrocyte progenitor cell differentiation-1 (MBP gene expression, mRNA); type: cell-based; settings: Rattus norvegicus, Oligodendrocyte progenitor cell, 96 h, read-out: promotive activity at T3 base (MBP gene expression; DMSO 0%, T3 100%), 4 days, MBP/β actin mRNA
How it was run: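 Primary OPCs from 1-day-old SD rat forebrain, isolated by shaking off mixed glial cultures and seeded at 2×10^3 cells/well in B27/CNTF (10 ng/mL) differentiation medium with compound. MBP mRNA measured by one-step TaqMan real-time PCR and expressed as MBP/β-actin ratio.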

mouse cuprizone model = experiment: Myelin regeneration promoting action in mouse cuprizone model (LFB staining of corpus callosum); type: in vivo; settings: 20 μg/kg oral once a day, 4 weeks after 6 weeks cuprizone diet; untreated = 100%
Source text: C57BL/6J mice (8 weeks old, male) were fed a diet containing 0.3% cuprizone (bis(cyclohexanone)oxaldihydrazone) (Research Diets, Inc. #D17042709) for 6 weeks to induce demyelination. Subsequently, the mice were divided into groups of 8 mice based on the body weight, the diet was switched to a cuprizone-free diet (Research Diets, Inc. #D10001), and administration of the test compound or vehicle was started. […] After administration of 4 weeks, the mice were euthanized, perfused with a 4% paraformaldehyde solution, and then brain sampling was performed. The brain sample obtained was embedded in paraffin to prepare a coronal section specimen at Bregma+1. The specimen was stained with Luxor Fast Blue (LFB) to visualize the myelin sheath, and images were acquired using a fluorescence microscope (KEYENCE #BZ-X710). The corpus callosum area and the LFB staining positive area in the corpus callosum of the obtained pathological specimen image were measured using an image analysis application (KEYENCE #BZ-H3C/BZ-H3XD), and the ratio (LFB staining positive area in the corpus callosum/corpus callosum area) was calculated. The intact group is a non-pathogenic group, and the […] control group were sampled after feeding the diet containing 0.3% cuprizone for 6 weeks.
In the table, the ratio of LFB staining positive area in the corpus callosum/corpus callosum area of the untreated group, fed with the cuprizone-free diet for 6 weeks, was regarded as 100%. As a result, the control group, fed with the cuprizone-containing diet for 6 weeks, decreased the ratio to 23.6%, and was confirmed to progress demyelination. The group, in which the cuprizone-containing diet was fed for 6 weeks and switched to the cuprizone-free diet, and the vehicle was administered, improved the ratio of area of LFB staining positive/area of corpus callosum to 50.1%. […] In addition, GSK239512 described in WO2013/107336 pamphlet was evaluated in the test to show the ratio of LFB staining positive area/corpus callosum area of 45.8%, in which no demyelination regeneration promoting action was shown as compared with the vehicle-administered group.

In the case of `C[C@H](CCN1CCOCC1)[C@H]1CC[C@H]2/C(=C/C=C3C[C@@H](O)C[C@H](O)C3)CCC[C@]12C` [Compound D023, (1R,3R)-5-(2-((1R,3aS,7aR,E)-7a-methyl-1-((R)-4-morpholinobutan-2-yl)octahydro-4H-inden-4-ylidene)ethylidene)cyclohexane-1,3-diol], the activation at 1 µM [1] is reported as at least 20% and the “Ratio (%): area of LFB staining positive/area of corpus callosum, mean” value (mouse cuprizone model) is reported as 87.0%.
